From the supplement of paper PMC13380429

Tests used:
Details in all cases: 72 h
Caco-2 [1] = test: cell viability relative to DMSO; higher = less toxic
Calu-3 [2] = test: as above
HepG2 [3] = test: as above
U2OS [4] = test: as above
Vero E6 [5] = test: as above
Caco-2 [6] = test: relative viability EC50 (midpoint between 100% and the lowest measured viability); higher = less toxic
Calu-3 [7] = test: as above
HepG2 [8] = test: as above
U2OS [9] = test: as above
Vero E6 [10] = test: as above
Caco-2 [11] = test: drug sensitivity score (DSS) for viability; higher = more toxic; extreme values may be limits of the assay
Calu-3 [12] = test: as above
HepG2 [13] = test: as above
U2OS [14] = test: as above
Vero E6 [15] = test: as above

Row | SMILES | cell viability (Caco-2 [1]; 1 nM) | cell viability (Caco-2 [1]; 10 nM) | cell viability (Caco-2 [1]; 100 nM) | cell viability (Caco-2 [1]; 1000 nM) | cell viability (Caco-2 [1]; 10000 nM) | cell viability (Calu-3 [2]; 1 nM) | cell viability (Calu-3 [2]; 10 nM) | cell viability (Calu-3 [2]; 100 nM) | cell viability (Calu-3 [2]; 1000 nM) | cell viability (Calu-3 [2]; 10000 nM) | cell viability (HepG2 [3]; 1 nM) | cell viability (HepG2 [3]; 10 nM) | cell viability (HepG2 [3]; 100 nM) | cell viability (HepG2 [3]; 1000 nM) | cell viability (HepG2 [3]; 10000 nM) | cell viability (U2OS [4]; 1 nM) | cell viability (U2OS [4]; 10 nM) | cell viability (U2OS [4]; 100 nM) | cell viability (U2OS [4]; 1000 nM) | cell viability (U2OS [4]; 10000 nM) | cell viability (Vero E6 [5]; 1 nM) | cell viability (Vero E6 [5]; 10 nM) | cell viability (Vero E6 [5]; 100 nM) | cell viability (Vero E6 [5]; 1000 nM) | cell viability (Vero E6 [5]; 10000 nM) | relative viability EC50 (Caco-2 [6]) | relative viability EC50 (Calu-3 [7]) | relative viability EC50 (HepG2 [8]) | relative viability EC50 (U2OS [9]) | relative viability EC50 (Vero E6 [10]) | drug sensitivity score (Caco-2 [11]) | drug sensitivity score (Calu-3 [12]) | drug sensitivity score (HepG2 [13]) | drug sensitivity score (U2OS [14]) | drug sensitivity score (Vero E6 [15])
1 | O=C(Nc1ccc(C(F)(F)F)cn1)N1CCN(c2ncccc2C(F)(F)F)CC1 | 97.9% | 99.3% | 97% | 96% | 92.1% | 99.3% | 104% | 93% | 100% | 92.8% | 108% | 91.7% | 105% | 98.4% | 101% | 94.1% | 98.5% | 102% | 99.4% | 100% | 102% | 93.9% | 94.9% | 101% | 103% | > 10 µM | > 10 µM | > 10 µM | > 10 µM | > 10 µM | 0 | 0 | 0 | 0 | 0
2 | CNNCc1ccc(C(=O)NC(C)C)cc1 [procarbazine] | 98.2% | 105% | 96.2% | 101% | 87.4% | 92.2% | 99.3% | 97.4% | 102% | 90.8% | 103% | 87.7% | 93.3% | 112% | 110% | 96% | 103% | 96.4% | 98.7% | 106% | 103% | 93.2% | 102% | 89% | 102% | > 10 µM | > 10 µM | > 10 µM | > 10 µM | > 10 µM | 0 | 0 | 0 | 0 | 0
3 | CCOc1cc2ncc(C#N)c(Nc3ccc(OCc4ccccn4)c(Cl)c3)c2cc1NC(=O)/C=C/CN(C)C [neratinib] | 98.7% | 93.4% | 85.1% | 54.7% | 35% | 93.4% | 69.6% | 43.9% | 34.9% | 33.7% | 111% | 97.3% | 88.2% | 77.6% | 17.8% | 93.6% | 96.7% | 96.7% | 88% | 75.7% | 104% | 102% | 90.9% | 64.1% | 17.5% | 0.365 µM | 0.0124 µM | 1.59 µM | > 10 µM | 1.14 µM | 10.3 | 22.8 | 7.5 | 1.8 | 8.7
